For data set [1], the system named is neuromuscular blockade induced by atracurium. The note with it: H. D. de Boer et al., British Journal of Anaesthesia 2006; cited from earlier work.
The conditions of data set [2]: such as mivacurium, atracurium, and cisatracurium; background; cited from earlier work.
In data set [3] the test system is Inflammation-Related Factors. It is filed as in vivo, ICR mice. The note with it: Adamgammadex sodium 1 g/kg, Sugammadex sodium 1 mg/kg, Neostigmine 0.3 mg/kg. The method, then:
An antibody array is a type of protein chip characterized by miniaturization, integration, and high throughput. It can be used to detect the expression abundance of proteins related to a specific physiological or pathological process. The principle involves arranging capture antibodies on a membrane or glass slide, incubating with the sample, adding biotin-labeled antibodies against the target proteins, and finally using HRP-streptavidin or fluorescein-streptavidin to detect the chip signal. Signals are detected using chemiluminescence or HiLyte™ Fluor 555-streptavidin.
In this experiment, ICR mice were randomly divided into a blank group, Adamgammadex sodium (1 g/kg) group, Sugammadex sodium (1 mg/kg) group, and Neostigmine (0.3 mg/kg) group, with 2 mice per group. Mice in each group given the corresponding dosage of compound via the tail vein once daily for 5 consecutive days. On the last day after administration, plasma from the 2 animals per group was mixed and detected using the Ary028 immune chip kit. Specific detection steps were as follows: • (1) Sample volume determination: 200 µL serum sample per Array unit. (2) Blocking protein chip: Each membrane was blocked with 2 mL of corresponding Array Buffer, incubated on a shaker for 1 hour. (3) Sample processing: Samples were diluted with corresponding Array Buffer to a volume of 1.5 mL per membrane, the corresponding Array unit was added, and incubated overnight with the Array protein membrane at 4°C. (4) Membranes were washed three times with corresponding Wash buffer, then diluted detection antibody was added and incubated at room temperature for 1 h. (5) Membranes were washed three times with corresponding Wash buffer, streptavidin-HRP was added and incubated for 30min at room temperature with shaking. (6) Membranes were washed three times with corresponding Wash buffer, 1 mL of chemiluminescent reagent was added to each well, and developed on a chemiluminescence imager. (7) Fluorescence intensity was used to represent the relative concentration of the corresponding protein.

Where [4] appears, read: ICR mice, tail vein once daily for 5 days, pooled plasma of 2 mice, N.D. = below minimum detection limit.

For the compound `O=C([O-])CCSC[C@H]1O[C@@H]2O[C@H]3[C@H](O)[C@@H](O)[C@@H](O[C@H]4[C@H](O)[C@@H](O)[C@@H](O[C@H]5[C@H](O)[C@@H](O)[C@@H](O[C@H]6[C@H](O)[C@@H](O)[C@@H](O[C@H]7[C@H](O)[C@@H](O)[C@@H](O[C@H]8[C@H](O)[C@@H](O)[C@@H](O[C@H]9[C@H](O)C(O)[C@@H](O[C@H]1[C@H](O)[C@H]2O)O[C@@H]9CSCCC(=O)[O-])O[C@@H]8CSCCC(=O)[O-])O[C@@H]7CSCCC(=O)[O-])O[C@@H]6CSCCC(=O)[O-])O[C@@H]5CSCCC(=O)[O-])O[C@@H]4CSCCC(=O)[O-])O[C@@H]3CSCCC(=O)[O-].[Na+].[Na+].[Na+].[Na+].[Na+].[Na+].[Na+].[Na+]` (stereo partly drawn) [Compound 7, Sugammadex sodium], in data set [1], the “reversing the neuromuscular blockade induced by atracurium (in words)” value was “ineffective”. Besides, the “binding to succinylcholine or benzylisoquinoline-type neuromuscular blocking agents (in words)” value in data set [2] was “does not bind”. In data set [3] (setting [4]), the “Fluorescence Intensity BAFF/BlyS/ TNFSF13B (B cell activation factor)” value stood at 13375.34, the “Fluorescence Intensity C-Reactive Protein/CRP (C-reactive protein)” value is 8550.52, the “Fluorescence Intensity CCL21/6Ckine (Lymphocyte chemokine CCL21)” value was 27027.2 and the “Fluorescence Intensity CCL22/MDC (Macrophage-derived chemokine)” value is on record as 2578.89. Moreover, in data set [3] (setting [4]), the “Fluorescence Intensity CD160 (Leukocyte differentiation antigen160)” value worked out at 187.67, the “Fluorescence Intensity CXCL9/MIG (IFN-γ-induced monocyte factor)” value amounted to 3617.92, the “Fluorescence Intensity Chemerin (Chemotactic factor)” value amounted to 4629.24 and the “Fluorescence Intensity IL-7 (Interleukin-7)” value came out at 1922.84. Besides, in data set [3] (setting [4]), the “Fluorescence Intensity IL-11 (Interleukin-11)” value came to 216.49, the “Fluorescence Intensity IL-12p40 (Interleukin IL-12p40)” value turned out to be 1049.34, the “Fluorescence Intensity IL-28 (Interleukin-28)” value is 2440.68 and the “Fluorescence Intensity IL-33 (Interleukin-33)” value worked out at 592.77. Moreover, in data set [3] (setting [4]), the “Fluorescence Intensity M-CSF (Macrophage colony-stimulating factor)” value turned out to be 5871.05, the “Fluorescence Intensity Myeloperoxidase (Mastoperoxidase)” value turned out to be 4645.21, the “Fluorescence Intensity Pentraxin 3 (Pertussis toxin 3)” value was found to be 4555.53 and the “Fluorescence Intensity TIM-1/KIM-1/ HAVCR (Hepatitis A virus receptor-1 (inflammation/ immunity))” value amounted to 1023.1. Besides, the “impact on inducing immune inflammation in mice (in words)” value in data set [3] (conclusion from Tables 3 and 4) is given as “second-lowest impact”. The “Fluorescence Intensity M-CSF (Macrophage lysis-stimulating factor)” value in data set [3] (second M-CSF line of Table 4, ICR mice, tail vein once daily for 5 days, pooled plasma of 2 mice, N.D. = below minimum detection limit) is given as 5871.05. The “Fluorescence Intensity Pentraxin 3/TSG-14 (Pertussis toxin 3)” value in data set [3] (second Pentraxin 3 line of Table 4, ICR mice, tail vein once daily for 5 days, pooled plasma of 2 mice, N.D. = below minimum detection limit) is 4555.53.

(Values after patent EP4778531A1, “MUSCLE RELAXANT ANTAGONIST FOR REVERSAL FOR BENZYLISOQUINOLINE MUSCLE RELAXANT” (priority 2023, dated 2025).)
